In ChEMBL document CHEMBL4043168, “The design and SAR of a novel series of 2-aminopyridine based LRRK2 inhibitors” (Bioorg Med Chem Lett, 2017):

Legend:
[1] = target: Tyrosine-protein kinase JAK2 (Homo sapiens) (UniProt O60674); assay: Inhibition of JAK2 domain2 activation Loop (IGDFGLTKVLPQDKEYYK) in human PBMC at 1 uM
[2] = target: Kinase suppressor of Ras 1 (Homo sapiens) (UniProt Q8IVT5); assay: Inhibition of KSR1 activation Loop (SKNVFYDNGK) in human PBMC at 1 uM
[3] = target: Serine/threonine-protein kinase Nek4 (Homo sapiens) (UniProt P51957); assay: Inhibition of NEK4 conserved Lys2 (DLKTQNVFLTR) in human PBMC at 1 uM
[4] = target: Serine/threonine-protein kinase Nek7 (Homo sapiens) (UniProt Q8TDX7); assay: Inhibition of NEK7 conserved Lys2 (DIKPANVFITATGVVK) in human PBMC at 1 uM
[5] = target: Phosphatidylinositol 4-kinase beta (Homo sapiens) (UniProt Q9UBF8); assay: Inhibition of PI4KB ATP binding site (VPHTQAVVLNSKDK) in human PBMC at 1 uM
[6] = target: T1, Phosphatidylinositol 4,5-bisphosphate 3-kinase catalytic subunit delta isoform (Homo sapiens) (UniProt O00329); assay: Inhibition of PIK3CD ATP binding site (TKVNWLAHNVSKDNRQ) in human PBMC at 1 uM
T1 sequence (whole entry): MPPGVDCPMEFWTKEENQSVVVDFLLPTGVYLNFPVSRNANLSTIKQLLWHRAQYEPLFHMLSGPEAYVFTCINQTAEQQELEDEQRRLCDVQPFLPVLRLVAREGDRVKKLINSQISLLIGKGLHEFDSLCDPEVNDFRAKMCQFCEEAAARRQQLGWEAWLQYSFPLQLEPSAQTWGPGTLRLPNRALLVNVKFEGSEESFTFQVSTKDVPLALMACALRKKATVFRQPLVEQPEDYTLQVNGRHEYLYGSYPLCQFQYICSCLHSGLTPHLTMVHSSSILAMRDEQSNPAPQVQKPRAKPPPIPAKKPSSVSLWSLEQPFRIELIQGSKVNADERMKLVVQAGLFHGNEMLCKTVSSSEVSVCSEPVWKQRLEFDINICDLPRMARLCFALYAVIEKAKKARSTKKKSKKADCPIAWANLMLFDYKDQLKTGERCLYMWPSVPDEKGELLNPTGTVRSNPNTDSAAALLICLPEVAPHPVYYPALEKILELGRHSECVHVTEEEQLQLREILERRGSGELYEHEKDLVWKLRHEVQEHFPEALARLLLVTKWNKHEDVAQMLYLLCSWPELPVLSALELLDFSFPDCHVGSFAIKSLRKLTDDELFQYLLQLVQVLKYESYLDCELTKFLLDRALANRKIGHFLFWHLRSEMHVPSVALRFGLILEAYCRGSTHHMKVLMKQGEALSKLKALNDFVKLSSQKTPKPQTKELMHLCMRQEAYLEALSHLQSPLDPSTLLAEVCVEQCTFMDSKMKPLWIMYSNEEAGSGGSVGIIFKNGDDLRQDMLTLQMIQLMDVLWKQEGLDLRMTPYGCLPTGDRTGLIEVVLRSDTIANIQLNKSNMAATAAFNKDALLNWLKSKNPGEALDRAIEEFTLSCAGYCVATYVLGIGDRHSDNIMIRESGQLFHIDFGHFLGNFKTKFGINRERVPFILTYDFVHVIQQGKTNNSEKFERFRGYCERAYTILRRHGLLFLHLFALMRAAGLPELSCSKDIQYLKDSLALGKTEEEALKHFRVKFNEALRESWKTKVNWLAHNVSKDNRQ

[7] = target: Protein kinase C beta type (Homo sapiens) (UniProt P05771); assay: Inhibition of PKCb conserved Lys2 (DLKLDNVMLDSEGHIK) in human PBMC at 1 uM
Sequence of Protein kinase C beta type (Homo sapiens) (P05771 2-671 limits assumed): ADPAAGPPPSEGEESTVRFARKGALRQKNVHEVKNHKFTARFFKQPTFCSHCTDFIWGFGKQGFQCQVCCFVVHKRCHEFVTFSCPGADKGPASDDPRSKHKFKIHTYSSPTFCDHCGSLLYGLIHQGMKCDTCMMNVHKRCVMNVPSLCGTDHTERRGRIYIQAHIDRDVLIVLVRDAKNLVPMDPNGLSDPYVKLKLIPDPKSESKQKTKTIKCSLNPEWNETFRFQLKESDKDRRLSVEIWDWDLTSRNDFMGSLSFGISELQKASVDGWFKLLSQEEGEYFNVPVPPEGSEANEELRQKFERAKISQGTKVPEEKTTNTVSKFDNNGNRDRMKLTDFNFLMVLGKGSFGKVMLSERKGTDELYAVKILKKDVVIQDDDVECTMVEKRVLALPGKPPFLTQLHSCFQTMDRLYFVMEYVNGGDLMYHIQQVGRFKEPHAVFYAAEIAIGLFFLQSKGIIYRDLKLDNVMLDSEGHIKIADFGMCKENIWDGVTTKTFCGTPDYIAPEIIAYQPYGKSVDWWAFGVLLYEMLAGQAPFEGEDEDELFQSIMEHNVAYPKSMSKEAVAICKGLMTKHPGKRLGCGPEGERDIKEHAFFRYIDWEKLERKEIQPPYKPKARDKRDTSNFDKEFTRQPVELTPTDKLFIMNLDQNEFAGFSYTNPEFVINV

[8] = target: Ribosomal protein S6 kinase alpha-3 (Homo sapiens) (UniProt P51812); assay: Inhibition of RSK2 domain1 activation Loop (LTDFGLSKESIDHEKK) in human PBMC at 1 uM
Sequence of Ribosomal protein S6 kinase alpha-3 (Homo sapiens) (P51812 whole entry, the tested form may be a part): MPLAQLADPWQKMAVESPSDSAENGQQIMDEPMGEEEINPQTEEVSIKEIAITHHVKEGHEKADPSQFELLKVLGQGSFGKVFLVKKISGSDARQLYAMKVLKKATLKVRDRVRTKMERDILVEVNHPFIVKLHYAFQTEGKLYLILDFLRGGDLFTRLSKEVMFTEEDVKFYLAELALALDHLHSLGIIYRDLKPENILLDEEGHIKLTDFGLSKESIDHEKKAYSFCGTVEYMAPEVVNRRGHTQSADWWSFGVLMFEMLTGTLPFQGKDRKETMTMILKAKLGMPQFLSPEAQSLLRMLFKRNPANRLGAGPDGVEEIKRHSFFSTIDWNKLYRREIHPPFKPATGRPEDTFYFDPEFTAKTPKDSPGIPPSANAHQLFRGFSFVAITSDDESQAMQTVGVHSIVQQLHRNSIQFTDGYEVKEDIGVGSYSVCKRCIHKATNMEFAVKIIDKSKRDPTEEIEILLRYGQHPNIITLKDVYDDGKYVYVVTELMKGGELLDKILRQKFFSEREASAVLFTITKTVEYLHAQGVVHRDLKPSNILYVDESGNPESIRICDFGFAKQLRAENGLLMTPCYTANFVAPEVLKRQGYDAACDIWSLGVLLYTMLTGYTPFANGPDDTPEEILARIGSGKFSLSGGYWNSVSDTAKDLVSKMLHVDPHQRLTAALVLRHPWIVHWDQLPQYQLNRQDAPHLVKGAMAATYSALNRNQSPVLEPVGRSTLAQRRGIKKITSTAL

[9] = target: T2, Serine/threonine-protein kinase LATS1 (Homo sapiens) (UniProt O95835); assay: Inhibition of LATS1 conserved Lys2 (DIKPDNILIDR) in human PBMC at 0.1 uM
T2 sequence (whole entry): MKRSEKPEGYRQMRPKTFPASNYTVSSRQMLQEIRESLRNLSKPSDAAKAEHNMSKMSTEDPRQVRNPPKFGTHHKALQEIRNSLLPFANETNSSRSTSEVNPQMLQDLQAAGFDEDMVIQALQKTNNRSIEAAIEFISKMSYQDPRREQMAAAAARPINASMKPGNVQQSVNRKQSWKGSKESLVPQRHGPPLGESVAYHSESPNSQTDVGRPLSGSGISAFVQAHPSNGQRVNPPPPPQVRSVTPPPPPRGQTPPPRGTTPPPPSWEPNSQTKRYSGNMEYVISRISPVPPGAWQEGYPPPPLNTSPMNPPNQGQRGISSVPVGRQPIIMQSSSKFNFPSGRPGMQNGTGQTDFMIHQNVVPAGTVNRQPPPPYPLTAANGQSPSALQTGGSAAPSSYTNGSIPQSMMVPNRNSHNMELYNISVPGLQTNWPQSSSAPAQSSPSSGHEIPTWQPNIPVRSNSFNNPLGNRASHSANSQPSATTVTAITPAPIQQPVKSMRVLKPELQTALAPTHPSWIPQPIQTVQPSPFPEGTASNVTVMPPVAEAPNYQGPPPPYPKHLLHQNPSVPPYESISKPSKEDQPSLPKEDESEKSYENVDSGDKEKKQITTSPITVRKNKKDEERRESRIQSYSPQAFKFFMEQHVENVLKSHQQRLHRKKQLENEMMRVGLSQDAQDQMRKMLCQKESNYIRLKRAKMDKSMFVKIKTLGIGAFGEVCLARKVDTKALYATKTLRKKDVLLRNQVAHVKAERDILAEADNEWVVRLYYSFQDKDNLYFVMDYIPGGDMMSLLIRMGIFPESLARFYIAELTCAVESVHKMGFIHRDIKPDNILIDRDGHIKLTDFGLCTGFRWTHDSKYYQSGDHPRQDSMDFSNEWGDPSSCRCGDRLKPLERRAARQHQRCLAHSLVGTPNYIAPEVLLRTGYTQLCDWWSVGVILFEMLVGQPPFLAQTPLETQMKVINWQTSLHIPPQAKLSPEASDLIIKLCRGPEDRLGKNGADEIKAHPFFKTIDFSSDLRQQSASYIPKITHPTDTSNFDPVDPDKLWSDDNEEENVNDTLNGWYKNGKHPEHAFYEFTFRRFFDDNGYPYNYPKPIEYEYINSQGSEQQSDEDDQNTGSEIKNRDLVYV

[10] = target: Mitogen-activated protein kinase kinase kinase 1 (Homo sapiens) (UniProt Q13233); assay: Inhibition of MAP3K1 conserved Lys2 (DVKGANLLIDSTGQR) in human PBMC at 0.1 uM
Sequence of Mitogen-activated protein kinase kinase kinase 1 (Homo sapiens) (Q13233 whole entry): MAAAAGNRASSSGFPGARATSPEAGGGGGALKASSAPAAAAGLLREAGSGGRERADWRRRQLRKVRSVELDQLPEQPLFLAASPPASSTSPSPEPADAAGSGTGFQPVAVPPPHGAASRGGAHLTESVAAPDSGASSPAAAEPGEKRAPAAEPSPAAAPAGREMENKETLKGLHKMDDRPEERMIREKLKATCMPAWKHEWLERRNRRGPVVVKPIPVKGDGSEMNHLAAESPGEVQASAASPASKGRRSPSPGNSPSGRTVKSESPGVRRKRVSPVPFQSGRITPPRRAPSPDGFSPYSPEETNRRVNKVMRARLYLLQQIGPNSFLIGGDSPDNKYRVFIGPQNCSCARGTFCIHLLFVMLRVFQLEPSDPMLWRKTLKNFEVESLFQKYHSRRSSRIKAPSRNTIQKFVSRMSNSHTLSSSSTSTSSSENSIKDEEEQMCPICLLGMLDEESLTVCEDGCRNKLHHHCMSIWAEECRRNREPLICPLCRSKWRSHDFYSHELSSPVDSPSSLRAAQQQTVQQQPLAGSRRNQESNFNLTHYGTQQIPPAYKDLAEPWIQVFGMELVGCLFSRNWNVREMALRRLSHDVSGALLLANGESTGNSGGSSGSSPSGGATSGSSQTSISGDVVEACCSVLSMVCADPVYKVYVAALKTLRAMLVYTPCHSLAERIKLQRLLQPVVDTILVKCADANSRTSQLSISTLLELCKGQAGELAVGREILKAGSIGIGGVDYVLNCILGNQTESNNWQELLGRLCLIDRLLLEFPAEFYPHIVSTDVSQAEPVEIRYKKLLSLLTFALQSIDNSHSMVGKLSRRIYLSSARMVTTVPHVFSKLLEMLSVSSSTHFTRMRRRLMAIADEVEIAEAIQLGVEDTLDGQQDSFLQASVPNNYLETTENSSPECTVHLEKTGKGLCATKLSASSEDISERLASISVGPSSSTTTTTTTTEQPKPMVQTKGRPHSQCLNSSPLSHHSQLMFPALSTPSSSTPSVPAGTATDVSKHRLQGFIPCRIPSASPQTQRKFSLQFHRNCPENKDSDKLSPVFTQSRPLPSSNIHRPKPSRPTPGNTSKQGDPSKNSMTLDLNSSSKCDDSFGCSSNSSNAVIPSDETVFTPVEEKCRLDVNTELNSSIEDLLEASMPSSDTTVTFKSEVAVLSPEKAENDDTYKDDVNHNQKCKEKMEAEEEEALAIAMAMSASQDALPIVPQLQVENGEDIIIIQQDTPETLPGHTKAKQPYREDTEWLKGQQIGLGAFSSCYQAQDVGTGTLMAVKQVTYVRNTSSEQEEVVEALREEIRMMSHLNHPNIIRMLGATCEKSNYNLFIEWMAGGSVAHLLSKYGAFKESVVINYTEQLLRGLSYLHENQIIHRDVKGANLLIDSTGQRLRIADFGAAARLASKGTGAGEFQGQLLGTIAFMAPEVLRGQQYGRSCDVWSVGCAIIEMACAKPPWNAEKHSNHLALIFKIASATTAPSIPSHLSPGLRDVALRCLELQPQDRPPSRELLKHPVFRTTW

[11] = target: Serine/threonine-protein kinase Nek9 (Homo sapiens) (UniProt Q8TD19); assay: Inhibition of NEK9 conserved Lys2 (DIKTLNIFLTK) in human PBMC at 0.1 uM
Sequence of Serine/threonine-protein kinase Nek9 (Homo sapiens) (Q8TD19 whole entry): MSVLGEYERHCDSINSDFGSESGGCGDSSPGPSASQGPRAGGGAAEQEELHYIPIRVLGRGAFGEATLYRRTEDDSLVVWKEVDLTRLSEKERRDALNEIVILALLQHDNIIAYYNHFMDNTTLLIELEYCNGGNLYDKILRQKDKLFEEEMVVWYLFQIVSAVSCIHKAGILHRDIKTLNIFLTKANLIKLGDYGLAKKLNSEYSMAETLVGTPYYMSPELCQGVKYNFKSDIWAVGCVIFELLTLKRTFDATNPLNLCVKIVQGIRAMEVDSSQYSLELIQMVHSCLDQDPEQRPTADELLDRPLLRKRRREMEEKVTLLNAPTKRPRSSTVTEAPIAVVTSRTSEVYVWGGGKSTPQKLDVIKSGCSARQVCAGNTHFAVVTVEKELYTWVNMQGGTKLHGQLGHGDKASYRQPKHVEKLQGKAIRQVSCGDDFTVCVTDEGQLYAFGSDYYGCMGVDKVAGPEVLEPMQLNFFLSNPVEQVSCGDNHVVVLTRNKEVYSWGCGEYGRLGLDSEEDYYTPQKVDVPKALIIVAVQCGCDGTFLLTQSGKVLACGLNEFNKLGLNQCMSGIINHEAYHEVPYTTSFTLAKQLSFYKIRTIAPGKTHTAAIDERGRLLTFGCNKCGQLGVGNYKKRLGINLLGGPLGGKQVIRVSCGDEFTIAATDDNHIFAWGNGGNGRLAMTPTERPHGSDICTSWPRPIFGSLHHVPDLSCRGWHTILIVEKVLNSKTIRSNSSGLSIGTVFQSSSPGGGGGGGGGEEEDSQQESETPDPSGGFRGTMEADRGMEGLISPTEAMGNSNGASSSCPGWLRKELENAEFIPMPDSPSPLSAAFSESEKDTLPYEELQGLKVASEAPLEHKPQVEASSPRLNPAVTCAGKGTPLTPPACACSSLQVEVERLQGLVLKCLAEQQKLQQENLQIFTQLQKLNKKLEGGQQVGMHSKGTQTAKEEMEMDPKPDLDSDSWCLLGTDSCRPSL

Sequence of Kinase suppressor of Ras 1 (Homo sapiens) (Q8IVT5 whole entry): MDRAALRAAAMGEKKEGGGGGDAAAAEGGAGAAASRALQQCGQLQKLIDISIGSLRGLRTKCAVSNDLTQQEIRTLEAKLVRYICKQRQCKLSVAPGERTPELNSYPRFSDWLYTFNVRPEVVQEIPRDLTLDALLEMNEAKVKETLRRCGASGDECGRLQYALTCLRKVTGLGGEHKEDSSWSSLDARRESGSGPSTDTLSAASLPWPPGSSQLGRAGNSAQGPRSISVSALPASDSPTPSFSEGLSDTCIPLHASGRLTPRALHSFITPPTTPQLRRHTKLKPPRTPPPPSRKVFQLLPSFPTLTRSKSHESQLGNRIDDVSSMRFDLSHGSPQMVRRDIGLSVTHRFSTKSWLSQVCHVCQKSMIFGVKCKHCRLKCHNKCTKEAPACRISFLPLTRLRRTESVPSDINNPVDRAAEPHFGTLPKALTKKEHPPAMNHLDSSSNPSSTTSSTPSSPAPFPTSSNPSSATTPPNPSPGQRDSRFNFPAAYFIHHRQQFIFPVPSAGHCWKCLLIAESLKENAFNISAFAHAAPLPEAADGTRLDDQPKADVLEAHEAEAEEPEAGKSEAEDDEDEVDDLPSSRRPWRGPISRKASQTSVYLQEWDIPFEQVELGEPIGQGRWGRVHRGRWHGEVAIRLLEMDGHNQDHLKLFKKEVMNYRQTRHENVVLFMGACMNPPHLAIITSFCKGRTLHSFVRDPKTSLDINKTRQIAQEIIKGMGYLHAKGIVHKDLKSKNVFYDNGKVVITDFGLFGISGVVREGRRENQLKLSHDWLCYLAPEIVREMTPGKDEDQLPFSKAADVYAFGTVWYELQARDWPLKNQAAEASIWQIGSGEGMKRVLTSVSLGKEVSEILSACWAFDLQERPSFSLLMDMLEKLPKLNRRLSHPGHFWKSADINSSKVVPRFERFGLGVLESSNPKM

CC(C)n1cc(-c2cc(-c3ccc(CN4CCOCC4)cc3)cnc2N)nn1
inhibition [1]: 5.2%
inhibition [2]: 20.1%
inhibition [3]: -1.7%
inhibition [4]: -9.6%
inhibition [5]: 2.2%
inhibition [6]: 4%
inhibition [7]: -7.4%
inhibition [8]: 22%
inhibition [9]: 34.9%
inhibition [10]: 29.6%
inhibition [11]: 26.5%
